Data: BindingDB's records for PubMed 36126447 (Acharya & Bm Reddy College of Pharmacy, 2022)

Biological target: Programmed cell death 1 ligand 1 (Homo sapiens) (UniProt Q9NZQ7)
Test: Inhibition of human PD-1/PDL1 protein-protein interaction by luminescence proximity homogeneous assay

Sequence of Programmed cell death 1 ligand 1 (Homo sapiens) (Q9NZQ7 whole entry, looked up): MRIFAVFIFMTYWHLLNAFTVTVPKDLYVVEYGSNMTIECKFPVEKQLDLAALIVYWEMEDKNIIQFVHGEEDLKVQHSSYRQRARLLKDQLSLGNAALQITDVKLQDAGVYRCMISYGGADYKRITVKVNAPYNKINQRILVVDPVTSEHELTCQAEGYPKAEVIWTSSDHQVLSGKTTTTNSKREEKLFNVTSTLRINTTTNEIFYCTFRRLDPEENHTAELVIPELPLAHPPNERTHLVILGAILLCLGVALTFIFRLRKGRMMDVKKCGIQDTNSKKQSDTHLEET

SMILES: Cc1c(COc2ccc(C[C@H](N)C(=O)O)cc2Br)cccc1-c1ccccc1
- IC50: 1.5 µM
